In US6936602B1, “Benzazepine derivatives, process for the preparation of the same and uses thereof” (Takeda Chemical Industries, Ltd., priority 1999, dated 2005):

Key:
human CCR5 = target: T1, human CCR5 (Homo sapiens, UniProt P51681); experiment: Evaluation of test compounds based on CCR5 antagonistic activity: inhibition of [125I]-RANTES binding to CCR5/CHO cells; conditions: Test Compound 1 μM, 100 pM [125I]-RANTES, room temperature for 40 minutes, read-out: Inhibitory Rate (%)
T1 construct: expressed in transfected cells
T1 sequence (P51681 whole entry): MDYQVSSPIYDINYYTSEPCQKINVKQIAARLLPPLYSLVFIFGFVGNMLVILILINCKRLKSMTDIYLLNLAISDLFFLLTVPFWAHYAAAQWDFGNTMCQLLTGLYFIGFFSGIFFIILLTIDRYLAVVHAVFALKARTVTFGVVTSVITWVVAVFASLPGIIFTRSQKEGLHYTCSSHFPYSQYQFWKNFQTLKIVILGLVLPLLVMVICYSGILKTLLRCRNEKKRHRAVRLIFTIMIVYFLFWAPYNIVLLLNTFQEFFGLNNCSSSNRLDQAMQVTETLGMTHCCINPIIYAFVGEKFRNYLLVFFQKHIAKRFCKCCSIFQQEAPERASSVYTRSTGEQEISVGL
Experimental: Cloning of CCR5 gene was carried out by a PCR method from human spleen cDNA. With using 0.5 ng of spleen cDNA (Toyobo, QUICK-Clone cDNA) as template, PCR was performed in DNA Thermal Cycler 480 (Perkin-Elmer) (reaction conditions: 30 cycles of 95° C. for 1 minute, 60° C. for 1 minute, and 75° C. for 5 minutes) by adding each 25 pmol of primers of a primer set, • SEQ ID NO.: 1 described in Test Example (1) of WO 99/32100 [length of sequence: 34; type of sequence: nucleic acid; strandedness: single; topology: straight; kind of sequence: other nucleic acid synthetic DNA, and • SEQ ID NO.: 2 described in Test Example (1) of WO 99/32100 [length of sequence: 34; type of sequence: nucleic acid; strandedness: single; topology: straight; kind of sequence: other nucleic acid synthetic DNA which were designed referring to nucleotide sequence of CCR5 gene reported by Samson et. al. (Biochemistry, 35(11), 3362-3367 (1996)) and by using TaKaRa EX Taq (Takara Shuzo). The resultant PCR product was subjected to agarose gel electrophoresis to collect about 1.0 kb DNA fragment, which was subjected to Original TA Cloning Kit (Funakoshi) to carry out cloning of CCR5 gene. (2) Preparation of Plasmid for Expression of Human CCR5
The plasmid obtained in the above (1) was digested with restriction enzymes XbaI (Takara Shuzo) and BamHI (Takara Shuzo) and subjected to agarose gel electrophoresis to collect about 1.0 kb DNA fragment.
The DNA fragment was mixed with plasmid pcDNA3.1 (Funakoshi) for expression in animal cells, said plasmid being digested with XbaI and BamHI, and they were ligated with DNA Ligation Kit Ver.2 (Takara Shuzo). The resulting plasmid was subjected to transformation of competent cell of E. coli JM109 (Takara Shuzo) to obtain plasmid pCKR5.
CHO-K1 cells were grown in 750 ml of tissue culture flask (Becton Dickinson) using Ham's F12 medium (Nihon Pharmaceutical) containing 10% fetal calf serum (Life Tech Oriental) and taken off with 0.5 g/L trypsin-0.2 g/L EDTA (Life Tech Oriental). The cells were washed with PBS (Life Tech Oriental), centrifuged (1000 rpm, 5 minutes), and suspended in PBS. With using Gene Pulser (Bio-Rad Laboratories), DNA was introduced into the cells under the conditions shown below. That is, to the cuvette of 0.4 cm gap were added 8×10^6 cells and 10 μg of plasmid pCKR5 for expression of human CCR5, and electroporation was carried out under 0.25 kV of voltage and 960 μF of capacitance. The cells were transferred into Ham's F12 medium containing 10% fetal calf serum, and cultivated for 24 hours. The cells were again taken off and centrifuged, and suspended in Ham's F12 medium containing 10% fetal calf serum and 500 μg/ml of geneticin (Life Tech Oriental). The suspension was diluted to give 10^4 cells/ml of the suspension, which was inoculated on a 96 well plate (Becton Dickinson) to give geneticin resistant cells.
The resulting geneticin resistant cells were cultivated in 96 well plate (Becton Dickinson), and cells expressing CCR5 were selected from the geneticin resistant cells. That is, in assay buffer (Ham's F12 medium containing 0.5% BSA and 20 mM HEPES (Wako Pure Chemical, pH7.2)) to which was added 200 pM of [^125I]-RANTES (Amersham) as a ligand, a binding reaction was carried out at room temperature for 46 minutes, and the buffer was washed with cooled PBS. To the buffer was added 50 μl/well of 1M NaOH, and the mixture was stirred. Radioactivity was determined with a y-counter to select CCR5/CHO cells which specifically bind to the ligand.
The CCR5/CHO cells were inoculated on 96 well microplate (5×10^4 cells/well) and cultivated for 24 hours. The medium was removed by means of suction, and to each well was added an assay buffer containing Test Compound (1 μM) and then 100 pM of [^125I]-RANTES (Amersham) as a ligand. A binding assay was carried out at room temperature for 40 minutes, and an assay buffer was removed by means of suction. […]

HIV-1 BA-L = experiment: Inhibitory effect on HIV-1 infection to MAGI-CCR5 cell (β-galactosidase blue cell count); type: cell-based; conditions: 100 μl medium containing 1.6 μM of Test Compound + 100 μl medium containing 300 PFU of HIV-1 BA-L; MAGI-CCR5 cells; 37° C. for 2 days
Experimental: (5) Inhibitory Effect on HIV-1 Infection to MAGI-CCR5 Cell
The plasmid where β-galactosidase gene was ligated downstream of HIV-1 LTR was introduced into CD4 positive HeLa cell, to which human CCR5 was further introduced to obtain transformant MAGI-CCR5.
By using said transformant MAGI-CCR5, a degree of HIV-1 infection was calculated using β-galactosidase activity (blue color due to decomposition of 5-bromo-4-chloro-3-indolyl-β-D-galactopyranoside) as an index. Specifically, MAGI-CCR5 cells were suspended in DMEM medium containing 10% serum to prepare 5×10^4 cells/ml suspension. To each well of 96 well plate was inoculated 200 μl of the suspension, and the cells were cultivated at 37° C. overnight. The medium was removed by means of suction, and to the residue was added 100 μl of the above medium containing 1.6 μM of Test Compound and 100 μl of the above medium containing 300 PFU of HIV-1 BA-L cells. The cells were cultivated at 37° C. for 2 days. The medium was removed by means of suction. To the residue was added 200 μl of a cell fixative (PBS containing 1% formaldehyde and 0.2% glutaraldehyde), and the mixture was allowed to stand at room temperature for 5 minutes and washed twice with PBS. To the mixture was added 100 μl of staining solution (PBS containing […] and 0.4 mg/ml X-gal), and the mixture was allowed to stand at 37° C. for 50 minutes and washed twice with PBS. The number of blue cells was counted by a microscope and defined as the number of cells infected with HIV-1. According to this method, inhibition rate of HIV-1 infection was determined.

Structure (SMILES) | inhibition at 1 µM (human CCR5) [%] | melting point [°C] | Inhibitation Rate (%) (HIV-1 BA-L)
CCOCCOc1ccc(-c2ccc3c(c2)C=C(C(=O)Nc2ccc(CN(C)C4CCOCC4)cc2)CCN3C=O)cc1 [Compound 1, 7-[4-(2-ethoxyethoxy)phenyl]-1-formyl-N-[4-[[N-methyl-N-(tetrahydro-2H-pyran-4-yl)amino]methyl]phenyl]-2,3-dihydro-1H-1-benzazepine-4-carboxamide] | 93 | 192 to 194 | 85
CCOCCCOc1ccc(-c2ccc3c(c2)C=C(C(=O)Nc2ccc(CN(C)C4CCOCC4)cc2)CCN3C=O)cc1 [Compound 2, 7-[4-(3-ethoxypropoxy)phenyl]-1-formyl-N-[4-[[N-methyl-N-(tetrahydro-2H-pyran-4-yl)amino]methyl]phenyl]-2,3-dihydro-1H-1-benzazepine-4-carboxamide] | 96 | 166 to 169 | 
CCOc1cc(-c2ccc3c(c2)C=C(C(=O)Nc2ccc(CN(C)C4CCOCC4)cc2)CCN3C=O)ccc1OCCOC(C)C [Compound 23, 7-[3-ethoxy-4-(2-propoxy)ethoxyphenyl]-1-formyl-N-[4-[[N-methyl-N-(tetrahydro-2H-pyran-4-yl)amino]methyl]phenyl]-2,3-dihydro-1H-1-benzazepine-4-carboxamide] | 97 | 117 to 119 | 
CCCOCCOc1ccc(-c2ccc3c(c2)C=C(C(=O)Nc2ccc(CN(C)C4CCOCC4)cc2)CCN3CCC)cc1 [Compound 26, N-[4-[[N-methyl-N-(tetrahydro-2H-pyran-4-yl)amino]methyl]phenyl]-7-[4-(2-propoxyethoxy)phenyl]-1-propyl-2,3-dihydro-1H-1-benzazepine-4-carboxamide] | 100 | 128 to 130 | 
CCCCOCCOc1ccc(-c2ccc3c(c2)C=C(C(=O)Nc2ccc(CN(C)C4CCOCC4)cc2)CCN3CCC)cc1 [Compound 27, 7-[4-(2-butoxyethoxy)phenyl]-N-[4-[[N-methyl-N-(tetrahydro-2H-pyran-4-yl)amino]methyl]phenyl]-1-propyl-2,3-dihydro-1H-1-benzazepine-4-carboxamide] | 100 | 122 to 124 | 
CCCCOCCOc1ccc(-c2ccc3c(c2)C=C(C(=O)Nc2ccc(CN(C)C4CCOCC4)cc2)CCN3Cc2ccccc2)cc1 [Compound 33, 1-benzyl-7-[4-(2-butoxyethoxy)phenyl]-N-[4-[[N-methyl-N-(tetrahydro-2H-pyran-4-yl)amino]methyl]phenyl]-2,3-dihydro-1H-1-benzazepine-4-carboxamide] | 98 | 127 to 131 | 
CCCCOCCOc1ccc(-c2ccc3c(c2)C=C(C(=O)Nc2ccc(CN(C)C4CCOCC4)cc2)CCN3CC2CC2)cc1 [Compound 35, 7-[4-(2-butoxyethoxy)phenyl]-1-cyclopropylmethyl-N-[4-[[N-methyl-N-(tetrahydro-2H-pyran-4-yl)amino]methyl]phenyl]-2,3-dihydro-1H-1-benzazepine-4-carboxamide] | 100 | 92 to 94 | 
CCCCOCCOc1ccc(-c2ccc3c(c2)C=C(C(=O)Nc2ccc(CN(C)C4CCOCC4)cc2)CCN3c2csc(C)n2)cc1 [Compound 45, 7-[4-(2-butoxyethoxy)phenyl]-1-(2-methylthiazol-4-yl)-N-[4-[[N-methyl-N-(tetrahydro-2H-pyran-4-yl)amino]methyl]phenyl]-2,3-dihydro-1H-1-benzazepine-4-carboxamide] | 100 | 115 to 123 | 
C=CCN1CCC(C(=O)Nc2ccc(CN(C)C3CCOCC3)cc2)=Cc2cc(-c3ccc(OCCOCCC)cc3)ccc21 [Compound 49, 1-allyl-N-[4-[[N-methyl-N-(tetrahydropyran-4-yl)amino]methyl]phenyl]-7-(4-propoxyethoxyphenyl)-2,3-dihydro-1-benzazepine-4-carboxamide] | 100 | 110 to 111 | 
C=CCN1CCC(C(=O)Nc2ccc(CN(C)C3CCOCC3)cc2)=Cc2cc(-c3ccc(OCCOCCCC)cc3)ccc21 [Compound 50, 1-allyl-7-(4-butoxyethoxyphenyl)-N-[4-[[N-methyl-N-(tetrahydropyran-4-yl)amino]methyl]phenyl]-2,3-dihydro-1-benzazepine-4-carboxamide] | 100 | 103 to 104 | 
CCCCOCCOc1ccc(-c2ccc3c(c2)C=C(C(=O)Nc2ccc(CN(C)C4CCOCC4)cc2)CCN3Cc2ccsc2)cc1 [Compound 58, 7-(4-butoxyethoxyphenyl)-N-[4-[[N-methyl-N-(tetrahydropyran-4-yl)amino]methyl]phenyl]-1-(3-thienylmethyl)-2,3-dihydro-1-benzazepine-4-carboxamide] | 99 | 122 to 123 | 
CCCCOCCOc1ccc(-c2ccc3c(c2)C=C(C(=O)Nc2ccc(CN(C)C4CCOCC4)cc2)CCN3Cc2nnnn2C)cc1 [Compound 101, 7-[4-(2-butoxyethoxy)phenyl]-N-[4-[N-methyl-N-(tetrahydropyran-4-yl)aminomethyl]phenyl]-1-(1-methyltetrazol-5-ylmethyl)-2,3-dihydro-1-benzazepine-4-carboxamide] | 100 | 132 to 135 | 
CCCCOCCOc1ccc(-c2ccc3c(c2)C=C(C(=O)Nc2ccc(CN(C)C4CCOCC4)cc2)CCN3CCCOC)cc1 [Compound 104, 7-[4-(2-butoxyethoxy)phenyl]-1-(3-methoxypropyl)-N-[4-[[N-methyl-N-(tetrahydropyran-4-yl)amino]methyl]phenyl]-2,3-dihydro-1H-1-benzazepine-4-carboxamide] | 98 | 87 to 90 | 
CCCCOCCOc1ccc(-c2ccc3c(c2)C=C(C(=O)Nc2ccc(CN(C)C4CCOCC4)cc2)CCN3Cc2nnn(CC)n2)cc1 [Compound 112, 7-[4-(2-butoxyethoxy)phenyl]-1-(2-ethyltetrazol-5-ylmethyl)-N-[4-[N-methyl-N-(tetrahydropyran-4-yl)aminomethyl]phenyl]-2,3-dihydro-1-benzazepine-4-carboxamide] | 100 |  | 
